From publication PMC10833137, “Characterization of a novel 4-guanidinobutyrase from Candida parapsilosis” (FEMS Yeast Research, 2024)
Where two headings read alike, the source gives them in different places.

Tests used:
AnGBase (A. niger GBase) = biological target: T1, AnGBase (A. niger GBase) (Aspergillus niger, UniProt W8R465); experiment: product inhibition, Cheng-Prusoff; format: biochemical
T1 sequence (W8R465 21-422 limits assumed): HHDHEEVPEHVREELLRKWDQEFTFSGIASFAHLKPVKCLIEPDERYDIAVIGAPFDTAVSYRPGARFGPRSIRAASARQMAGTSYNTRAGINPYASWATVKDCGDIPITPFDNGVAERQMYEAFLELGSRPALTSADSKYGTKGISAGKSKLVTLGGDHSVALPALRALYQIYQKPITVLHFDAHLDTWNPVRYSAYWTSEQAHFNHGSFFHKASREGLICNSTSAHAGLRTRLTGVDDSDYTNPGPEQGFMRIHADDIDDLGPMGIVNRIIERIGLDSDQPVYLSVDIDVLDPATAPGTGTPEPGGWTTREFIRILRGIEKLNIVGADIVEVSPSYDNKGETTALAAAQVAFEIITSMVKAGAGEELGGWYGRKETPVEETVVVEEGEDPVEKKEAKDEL
Text: product inhibition, Cheng-Prusoff on AnGBase (A. niger GBase)

[1] = biological target: T2, CpGBase (C. parapsilosis 4-guanidinobutyrase; CparGBase) (Lodderomyces parapsilosis, UniProt G8B5B7); experiment: modified Archibald urea assay, product inhibition, Cheng-Prusoff; format: biochemical
T2 construct: gene CPAR2_602270
T2 sequence (G8B5B7 16-367 limits assumed): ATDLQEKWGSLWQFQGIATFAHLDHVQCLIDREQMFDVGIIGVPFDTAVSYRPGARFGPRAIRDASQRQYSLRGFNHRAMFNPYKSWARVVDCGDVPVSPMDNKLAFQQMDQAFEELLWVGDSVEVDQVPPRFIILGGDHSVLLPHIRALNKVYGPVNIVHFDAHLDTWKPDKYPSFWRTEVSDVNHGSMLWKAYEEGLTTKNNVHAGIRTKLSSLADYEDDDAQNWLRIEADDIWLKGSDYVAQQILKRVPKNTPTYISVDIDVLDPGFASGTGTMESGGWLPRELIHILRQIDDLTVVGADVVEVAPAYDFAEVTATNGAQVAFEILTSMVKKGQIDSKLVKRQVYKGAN
Text: modified Archibald urea assay, product inhibition, Cheng-Prusoff on CpGBase (C. parapsilosis 4-guanidinobutyrase; CparGBase)

purified protein [2] = substrate: N=C(N)NCCC(=O)O; experiment: purified protein; format: biochemical, Lodderomyces parapsilosis; details: 20 mM phosphate buffer, 37 °C, 20 min, enriched enzyme
purified protein [3] = substrate: N=C(N)NCCCC(=O)O; experiment: purified protein; format: biochemical, Lodderomyces parapsilosis; details: 20 mM phosphate buffer, 37 °C, 20 min, enriched enzyme

Molecule: NCCCC(=O)O [GABA]
- Ki (AnGBase (A. niger GBase); read-out: KI / GABA): 4.1 ± 1.1 mM
- Ki ([1]; read-out: KI / GABA): 3.1 ± 0.5 mM

Molecule: NCCC(=O)O [β-alanine]
- Ki (AnGBase (A. niger GBase); read-out: KI / β-alanine): 48.7 ± 0.8 mM
- Ki ([1]; read-out: KI / β-alanine): 7.8 ± 1.2 mM

B1: CpGBase (C. parapsilosis 4-guanidinobutyrase; CparGBase) (Lodderomyces parapsilosis CDC317) (protein)
chain: ATDLQEKWGSLWQFQGIATFAHLDHVQCLIDREQMFDVGIIGVPFDTAVSYRPGARFGPRAIRDASQRQYSLRGFNHRAMFNPYKSWARVVDCGDVPVSPMDNKLAFQQMDQAFEELLWVGDSVEVDQVPPRFIILGGDHSVLLPHIRALNKVYGPVNIVHFDAHLDTWKPDKYPSFWRTEVSDVNHGSMLWKAYEEGLTTKNNVHAGIRTKLSSLADYEDDDAQNWLRIEADDIWLKGSDYVAQQILKRVPKNTPTYISVDIDVLDPGFASGTGTMESGGWLPRELIHILRQIDDLTVVGADVVEVAPAYDFAEVTATNGAQVAFEILTSMVKKGQIDSKLVKRQVYKGAN
- Km (purified protein [2]): 9.6 ± 0.4 mM
- Km (purified protein [3]): 4.6 ± 0.5 mM
